Measured values: publication PMC3914206

What was measured:
panel of 442 kinases [1] = molecular target: T1, panel of 442 kinases (Homo sapiens, UniProt P27361); type: binding; conditions: Compound Concentration 10 µM
T1 construct: purchased KINOMEscan
From the text: (§1) We assessed the selectivity of members of this scaffold using the KINOMEscan methodology across a near comprehensive panel of 442 kinases [[18,27]].

panel of 442 kinases [2] = molecular target: T2, panel of 442 kinases (Homo sapiens, UniProt O15111); type: binding; conditions: Compound Concentration 10 µM
T2 construct: purchased KINOMEscan
T2 sequence (O15111 1-745): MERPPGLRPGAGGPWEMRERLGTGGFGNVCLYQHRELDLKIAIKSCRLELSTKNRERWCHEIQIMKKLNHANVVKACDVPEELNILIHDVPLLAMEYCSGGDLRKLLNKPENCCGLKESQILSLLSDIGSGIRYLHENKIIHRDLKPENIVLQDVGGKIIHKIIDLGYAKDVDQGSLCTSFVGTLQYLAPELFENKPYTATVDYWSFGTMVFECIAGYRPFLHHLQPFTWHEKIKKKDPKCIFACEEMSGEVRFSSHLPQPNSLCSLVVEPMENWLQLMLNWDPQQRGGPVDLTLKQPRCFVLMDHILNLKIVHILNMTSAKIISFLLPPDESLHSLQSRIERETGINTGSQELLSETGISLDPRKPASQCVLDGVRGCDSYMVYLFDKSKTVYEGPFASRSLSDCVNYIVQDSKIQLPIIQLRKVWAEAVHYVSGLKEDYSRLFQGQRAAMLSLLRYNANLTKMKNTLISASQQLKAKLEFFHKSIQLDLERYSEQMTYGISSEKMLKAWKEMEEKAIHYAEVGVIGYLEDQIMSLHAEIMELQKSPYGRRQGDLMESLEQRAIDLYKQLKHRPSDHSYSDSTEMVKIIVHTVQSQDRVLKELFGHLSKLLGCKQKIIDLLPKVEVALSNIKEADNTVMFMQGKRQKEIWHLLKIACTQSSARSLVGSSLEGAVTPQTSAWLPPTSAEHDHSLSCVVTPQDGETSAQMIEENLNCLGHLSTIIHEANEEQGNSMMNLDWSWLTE
From the text: as §1

T1 sequence (P27361 whole entry): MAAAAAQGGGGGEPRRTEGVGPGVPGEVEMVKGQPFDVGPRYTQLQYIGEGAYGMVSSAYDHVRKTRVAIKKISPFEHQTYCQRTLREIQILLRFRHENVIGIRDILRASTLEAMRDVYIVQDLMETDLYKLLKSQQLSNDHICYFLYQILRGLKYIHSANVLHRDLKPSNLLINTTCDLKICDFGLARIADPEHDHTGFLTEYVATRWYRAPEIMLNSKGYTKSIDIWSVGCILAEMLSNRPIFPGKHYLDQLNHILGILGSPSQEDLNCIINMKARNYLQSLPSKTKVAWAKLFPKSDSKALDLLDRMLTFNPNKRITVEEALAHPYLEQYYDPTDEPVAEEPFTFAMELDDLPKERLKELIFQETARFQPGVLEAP

SMILES	KINOMEscan: ERK1 (panel of 442 kinases [1])	KINOMEscan: IKK-alpha (panel of 442 kinases [2])
COc1cc(C(=O)N2CCC(N3CCN(C)CC3)CC2)ccc1Nc1ncc2c(n1)N(C)c1ccccc1C(=O)N2C [15 (LRRK2-IN-1)]	100	100
COc1cc(C(=O)N2CCC(N3CCN(C)CC3)CC2)ccc1Nc1ncc2c(n1)N(C1CCCC1)c1ccccc1C(=O)N2C [Compound 25, 11-cyclopentyl-2-((2-methoxy-4-(4-(4-methylpiperazin-1-yl)piperidine-1-carbonyl)phenyl)amino)-5-methyl-5H-benzo[e]pyrimido[5,4-b][1,4]diazepin-6(11H)-one]	96	100
CCOc1cc(C(=O)N2CCC(N3CCN(C)CC3)CC2)ccc1Nc1ncc2c(n1)N(C1CCCC1)c1ccccc1C(=O)N2C [Compound 26]	100	100
